According to US20230123334A1, “AMINO LIPID COMPOUND, PREPARATION METHOD THEREFOR, AND APPLICATION THEREOF” (SHENZHEN SHENXIN BIOTECHNOLOGY CO., LTD., priority 2020, published 2023):

Key:
Hela cells [1] = assay: Transfection of Hela cell line, DNA vectors; format: cell-based; conditions: 75 ng plasmid DNA, GFP cells / total cells
Protocol: 1. The compound (0.01 mmol) prepared in Example 1 was dissolved in 1 mL of anhydrous ethanol. After ultrasonically dissolved, 10 μL of the resultant amino lipid solution in ethanol was taken and mixed with 5 μL of DOPE solution in ethanol (0.01 m), and then to the obtained mixture was added 35 μL of 0.2M sodium acetate buffer (pH 5.6), and 50 μL of liposome solution was prepared by vortex at a constant rotating speed for 30 s. 4 μL was taken from the 50 μL liposome solution and added to 46 μL of 0.02M sodium acetate buffer (pH 5.6), and the final liposome solution was formed by vortex at a constant rotating speed for 30 s. 5 μL was taken from the final liposome solution and mixed with 75 ng plasmid DNA (psin-EGFP-IRES-Puro, Clontech) dissolved in 5 μL of 0.02 M sodium acetate buffer, and was allowed to stay at room temperature for 30 min to form a lipid/DNA transfection complex.
2. 10 μL of the lipid/DNA transfection complex was incubated at room temperature for 30 min, followed by addition of 90 μL of fresh resuspended cells (3-5×10^4 cells) and mixing with a pipette. 100 μL of cells+lipid/DNA complex was transferred to separate wells of a 96-well culture plate immediately, and placed in an incubator containing 5% CO2 at 37° C.
3. Hoechst33258 (Invitrogen) was added at a final concentration of 0.2 μg/mL to the cells 20 to 24 hours after initial cell transfection, and cultured in darkness at 37° C. for 15 min. Afterwards, the cells were washed once with a PBS solution, and then added with medium for culture for 20 to 24 h.
4. The cells were placed in a high-throughput confocal microscope (Molecular Devices ImageXpress), and four visual fields of the image of the cells were captured for each well, and images at three laser wavelengths were captured for each sample: bright field images of cells (FIG. 2(a) and FIG. 2(b)), Hoechst-staining images showing total nuclei (FIG. 2(c) and FIG. 2(d)) and GFP images showing success in transfection with the plasmid DNA and the expression of GFP (FIG. 2(e) and FIG. 2(f)). MetaXpress software was used to separately count the cells in the Hoechst-staining images and GFP images, and then the number of cells expressing GFP was divided by the total number of nuclei to give the absolute cell transfection efficiency. The absolute transfection efficiency was calculated as follows: […]
(§1) Cell line: Hela cells (ATCC 35241)
(§2) Medium: DMEM supplemented with 10% fetal bovine serum (Invitrogen)
(§3) Screening: cell transfection on 96-well plates
Detection (readout): percentage of the number of GFP fluorescent cells relative to the total number of cells (the total number of cells was determined using nucleus dye Hoechst). Lipofectamine2000 (Invitrogen) was used as the positive control, according to the manufacturer's instructions.
Method: the experimental method was basically the same with Example 4.

Hela cells [2] = assay: Transfection of Hela cell line, mRNA vectors; format: cell-based; conditions: 50 ng EGFP mRNA per well
Protocol: as §1, §2, §3
Detection (readout): percentage of the number of GFP fluorescent cells relative to the total number of cells (the total number of cells was determined using nucleus dye Hoechst). A commercially available liposome transfection reagent Lipofectamine2000 (Invitrogen) was used as the positive control group, according to the manufacturer's instructions.
Method: the experimental method was basically the same with Example 4, and the mass of EGFP mRNA for transfection was 50 ng per well.

| SMILES | Absolute DNA transfection efficiency in Hela cells (Hela cells [1]) [%] | Absolute mRNA transfection efficiency in Hela cells (Hela cells [2]) [%] |
| --- | --- | --- |
| CCCCCCCCCCCSc1nc(NCCN(C)C)nc(SCCCCCCC)n1 [Compound S7S11D1] | 5.9 | 5.9 |
| CCCCCCCCCCCSc1nc(NCCN2CCOCC2)nc(SCCCCCCC)n1 [Compound S7S11D2] | 13.6 | 13.6 |
| CCCCCCCCCCCSc1nc(NCCN2CCCCC2)nc(SCCCCCCC)n1 [Compound S7S11D4] | 7.9 | 7.9 |
| CCCCCCCCCCCSc1nc(NCCN(CC)CC)nc(SCCCCCCC)n1 [Compound S7S11D7] | 5.2 | 5.2 |
| CCCCCCCCCCCCSc1nc(NCCN(C)C)nc(SCCCCCCC)n1 [Compound S7S12D1] | 4.2 | 4.1 |
| CCCCCCCCCCCCSc1nc(NCCN2CCOCC2)nc(SCCCCCCC)n1 [Compound S7S12D2] | 9.2 | 9.2 |
| CCCCCCCCCCCCSc1nc(NCCN2CCCCC2)nc(SCCCCCCC)n1 [Compound S7S12D4] | 4.7 | 4.7 |
| CCCCCCCCCCCCSc1nc(NCCN(CC)CC)nc(SCCCCCCC)n1 [Compound S7S12D7] | 3.5 | 3.5 |
| CCCCCCCCCCCNc1nc(NCCN(C)C)nc(SCCCCCCCC)n1 [Compound S8N11D1] | 21.12 | 21.2 |
| CCCCCCCCCCCNc1nc(NCCN2CCOCC2)nc(SCCCCCCCC)n1 [Compound S8N11D2] | 12.7 | 12.7 |
| CCCCCCCCCCCNc1nc(NCCN2CCCCC2)nc(SCCCCCCCC)n1 [Compound S8N11D4] | 7.6 | 7.6 |
| CCCCCCCCCCCNc1nc(NCCN(CC)CC)nc(SCCCCCCCC)n1 [Compound S8N11D7] | 12.2 | 12.3 |
| CCCCCCCCCCCCNc1nc(NCCN(C)C)nc(SCCCCCCCC)n1 [Compound S8N12D1] | 11.5 | 11.5 |
| CCCCCCCCCCCCNc1nc(NCCN2CCOCC2)nc(SCCCCCCCC)n1 [Compound S8N12D2] | 19.3 | 19.3 |
| CCCCCCCCCCCCNc1nc(NCCN2CCCCC2)nc(SCCCCCCCC)n1 [Compound S8N12D4] | 3.81 | 3.8 |
| CCCCCCCCCCCCNc1nc(NCCN(CC)CC)nc(SCCCCCCCC)n1 [Compound S8N12D7] | 4.7 | 4.7 |
| CCCCCCCCCCCCCNc1nc(NCCN(C)C)nc(SCCCCCCCC)n1 [Compound S8N13D1] | 9.7 | 9.7 |
| CCCCCCCCCCCCCNc1nc(NCCN2CCOCC2)nc(SCCCCCCCC)n1 [Compound S8N13D2] | 9.83 | 9.8 |
| CCCCCCCCCCCCCNc1nc(NCCN2CCCCC2)nc(SCCCCCCCC)n1 [Compound S8N13D4] | 1.8 | 1.8 |

| SMILES | Absolute DNA transfection efficiency in Hela cells (Hela cells [1]) [%] | Absolute mRNA transfection efficiency in Hela cells (Hela cells [2]) [%] |
| --- | --- | --- |
| CCCCCCCCCCCCCNc1nc(NCCN(CC)CC)nc(SCCCCCCCC)n1 [Compound S8N13D7] | 4.5 | 4.5 |
| CCCCCCCCCCCSc1nc(NCCN(C)C)nc(SCCCCCCCC)n1 [Compound S8S11D1] | 4.59 | 4.9 |
| CCCCCCCCCCCSc1nc(NCCN2CCOCC2)nc(SCCCCCCCC)n1 [Compound S8S11D2] | 8.9 | 8.6 |
| CCCCCCCCCCCSc1nc(NCCN2CCCCC2)nc(SCCCCCCCC)n1 [Compound S8S11D4] | 4.5 | 4.5 |
| CCCCCCCCCCCSc1nc(NCCN(CC)CC)nc(SCCCCCCCC)n1 [Compound S8S11D7] | 5.7 | 5.7 |
| CCCCCCCCCCCCSc1nc(NCCN(C)C)nc(SCCCCCCCC)n1 [Compound S8S12D1] | 5.4 | 5.4 |
| CCCCCCCCCCCCSc1nc(NCCN2CCOCC2)nc(SCCCCCCCC)n1 [Compound S8S12D2] | 8.7 | 8.7 |
| CCCCCCCCCCCCSc1nc(NCCN2CCCCC2)nc(SCCCCCCCC)n1 [Compound S8S12D4] | 5.4 | 5.4 |
| CCCCCCCCCCCCSc1nc(NCCN(CC)CC)nc(SCCCCCCCC)n1 [Compound S8S12D7] | 4.6 | 4.6 |
| CCCCCCCCCNc1nc(NCCN(C)C)nc(SCCCCCCCCC)n1 [Compound S9N9D1] | 17.7 | 17.7 |
| CCCCCCCCCNc1nc(NCCN2CCOCC2)nc(SCCCCCCCCC)n1 [Compound S9N9D2] | 12.0 | 12.0 |
| CCCCCCCCCNc1nc(NCCN2CCCCC2)nc(SCCCCCCCCC)n1 [Compound S9N9D4] | 8.9 | 8.9 |
| CCCCCCCCCNc1nc(NCCN(CC)CC)nc(SCCCCCCCCC)n1 [Compound S9N9D7] | 24.8 | 24.8 |
| CCCCCCCCCCCNc1nc(NCCN(C)C)nc(SCCCCCCCCC)n1 [Compound S9N11D1] | 17.7 | 17.7 |
| CCCCCCCCCCCNc1nc(NCCN2CCOCC2)nc(SCCCCCCCCC)n1 [Compound S9N11D2] | 8.2 | 8.2 |
| CCCCCCCCCCCNc1nc(NCCN2CCCCC2)nc(SCCCCCCCCC)n1 [Compound S9N11D4] | 4.4 | 4.4 |
| CCCCCCCCCCCNc1nc(NCCN(CC)CC)nc(SCCCCCCCCC)n1 [Compound S9N11D7] | 7.8 | 7.8 |
| CCCCCCCCCCCCNc1nc(NCCN(C)C)nc(SCCCCCCCCC)n1 [Compound S9N12D1] | 19.7 | 19.6 |
